For this experiment, the system named is ob/ob mouse. Kind of experiment: Antidiabetic and hypolipaemic effect in the ob/ob mouse. It counts as in vivo. The source says:
Mutations in laboratory animals and also different sensitivities to dietary regimens have allowed the development of animal models having non-insulin-dependent diabetes and hyperlipidaemia associated with obesity and with resistance to insulin. Genetic mice models (ob/ob) (Diabetes, 1982, 31 (1), 1-6) and Zucker (fa/fa) rats have been developed by various laboratories in order to understand the physiopathology of those diseases and test the effectiveness of new antidiabetic compounds (Diabetes, 1983, 32, 830-838).
The 10-week-old male ob/ob mouse (Harlan) is used for the in vivo tests. The animals are kept in a light-darkness cycle of 12 hours at 25° C. This mouse has a basal hyperglycaemia of 2 g/l. The animals are randomly selected with regard to their glycaemia to form groups of eight. […] The control group receives the solvents under the same conditions as the treated groups. The activity of the products is evaluated by measuring glycaemia, insulinaemia and triglyceridaemia 24 hours after the final administration and by measuring body weight daily.

[1] abbreviates: 3 mg/kg oral, once per day for four days, 24 hours after final administration.

Turning to `O=C(c1ccc2c(c1)sc(=O)n2CCOc1ccc(CC(OCC(F)(F)F)C(=O)O)cc1)C1CC1` (stereo not shown) [Example 2, 3-{4-[2-(6-(Cyclopropylcarbonyl)-2-oxo-1,3-benzothiazol-3(2H)-yl)-ethoxy]phenyl}-2-(2,2,2-trifluoroethoxy)propanoic acid], under setting [1], the “reduction of glycaemia vs control mice” value is given as 42%, the “reduction of insulinaemia vs control mice” value is recorded as 71% and the “reduction of triglyceridaemia vs control mice” value was found to be 45%.

As to `O=C(c1ccc2c(c1)sc(=O)n2CCOc1ccc(C[C@H](OCC(F)(F)F)C(=O)[O-])cc1)C1CC1.[Na+]` [Example 9, Sodium (S)-3-{4-[2-(6-(cyclopropylcarbonyl)-2-oxo-1,3-benzothiazol-3(2H)-yl)ethoxy]phenyl}-2-(2,2,2-trifluoroethoxy)propanoate], where the note is “1 mg/kg”, the reduction in glycaemia is reported as 39%, the reduction in insulinaemia is on record as 41%, the “reduction in the weight gain observed in the ob/ob control mice” value stood at 14% and the reduction in triglyceridaemia is recorded as 52%.

The values are drawn from US20090239917A1, “Heterocyclic Cycloalkyl Compounds, a Process for their Preparation and Pharmaceutical Compositions Containing Them” (Les Laboratoires Servier, priority 2006, published 2009).
